Assay results reported in the NIST ThermoML archive (doi:10.1016/j.fluid.2010.06.003).
Several values for one entry are separate records, joined by “and”; a condition that tells them apart may be missing. Identical values can stand only once.

Assay: xn = mol fraction of the nth substance listed
Conditions: Liquid, Taylor dispersion method, x1 = 0

For `C[c-]1cccc1.C[c-]1cccc1.[Fe+2]` [1,1'-dimethylferrocene] + C1CCCCC1, the binary diffusion coefficient (313.15 K, 190 kPa) was 1.36e-09 m2/s and 1.37e-09 m2/s, the binary diffusion coefficient (313.15 K, 11020 kPa) was 1.2e-09 m2/s and the binary diffusion coefficient (313.15 K, 11030 kPa) was 1.2e-09 m2/s. For the same compound, the binary diffusion coefficient (313.15 K, 11090 kPa) was 1.21e-09 m2/s, the binary diffusion coefficient (313.15 K, 16010 kPa) was 1.14e-09 m2/s and the binary diffusion coefficient (313.15 K, 16020 kPa) was 1.14e-09 m2/s. The binary diffusion coefficient (313.15 K, 16030 kPa) was 1.13e-09 m2/s, the binary diffusion coefficient (313.15 K, 19010 kPa) was 1.09e-09 m2/s and the binary diffusion coefficient (313.15 K, 19020 kPa) was 1.09e-09 m2/s and 1.14e-09 m2/s and 1.11e-09 m2/s. It also gave a binary diffusion coefficient (323.15 K, 16000 kPa) of 1.36e-09 m2/s, a binary diffusion coefficient (323.15 K, 16020 kPa) of 1.36e-09 m2/s and a binary diffusion coefficient (323.15 K, 16030 kPa) of 1.36e-09 m2/s.

For `C[c-]1cccc1.C[c-]1cccc1.[Fe+2]` [1,1'-dimethylferrocene] + CCCCCC, the binary diffusion coefficient (313.15 K, 160 kPa) was 3.36e-09 m2/s and 3.4e-09 m2/s and 3.37e-09 m2/s, the binary diffusion coefficient (313.15 K, 170 kPa) was 3.41e-09 m2/s and the binary diffusion coefficient (313.15 K, 11030 kPa) was 3.05e-09 m2/s and 3.06e-09 m2/s. The binary diffusion coefficient (313.15 K, 15990 kPa) was 2.9e-09 m2/s, the binary diffusion coefficient (313.15 K, 16000 kPa) was 2.89e-09 m2/s and 2.87e-09 m2/s and the binary diffusion coefficient (313.15 K, 16010 kPa) was 2.9e-09 m2/s. The binary diffusion coefficient (313.15 K, 16030 kPa) was 2.9e-09 m2/s and the binary diffusion coefficient (313.15 K, 19020 kPa) was 2.84e-09 m2/s.

In the case of `C[c-]1cccc1.C[c-]1cccc1.[Fe+2]` [1,1'-dimethylferrocene] + CCO, the binary diffusion coefficient (313.15 K, 200 kPa) was 1.29e-09 m2/s and 1.3e-09 m2/s and 1.31e-09 m2/s.

With `CCc1ccc[cH-]1.[Fe+2].c1cc[cH-]c1` [ethyl ferrocene] + C1CCCCC1 the binary diffusion coefficient (313.15 K, 170 kPa) was 1.38e-09 m2/s, the binary diffusion coefficient (313.15 K, 180 kPa) was 1.36e-09 m2/s and 1.38e-09 m2/s and the binary diffusion coefficient (313.15 K, 11020 kPa) was 1.21e-09 m2/s. The binary diffusion coefficient (313.15 K, 11030 kPa) was 1.2e-09 m2/s, the binary diffusion coefficient (313.15 K, 16030 kPa) was 1.14e-09 m2/s and 1.15e-09 m2/s and the binary diffusion coefficient (313.15 K, 19010 kPa) was 1.12e-09 m2/s and 1.15e-09 m2/s. For the same compound, the binary diffusion coefficient (313.15 K, 19020 kPa) was 1.12e-09 m2/s, the binary diffusion coefficient (313.15 K, 19030 kPa) was 1.11e-09 m2/s and the binary diffusion coefficient (323.15 K, 16020 kPa) was 1.36e-09 m2/s. The binary diffusion coefficient (323.15 K, 16030 kPa) was 1.35e-09 m2/s.

With `CCc1ccc[cH-]1.[Fe+2].c1cc[cH-]c1` [ethyl ferrocene] + CCCCCC the binary diffusion coefficient (313.15 K, 160 kPa) was 3.35e-09 m2/s and 3.37e-09 m2/s and 3.38e-09 m2/s and 3.3e-09 m2/s and 3.34e-09 m2/s, the binary diffusion coefficient (313.15 K, 11060 kPa) was 2.98e-09 m2/s and the binary diffusion coefficient (313.15 K, 11070 kPa) was 3e-09 m2/s and 2.99e-09 m2/s. The binary diffusion coefficient (313.15 K, 16010 kPa) was 2.86e-09 m2/s and 2.89e-09 m2/s, the binary diffusion coefficient (313.15 K, 16030 kPa) was 2.87e-09 m2/s and the binary diffusion coefficient (313.15 K, 18960 kPa) was 2.81e-09 m2/s. It also gave a binary diffusion coefficient (313.15 K, 19010 kPa) of 2.78e-09 m2/s.

In the case of `CCc1ccc[cH-]1.[Fe+2].c1cc[cH-]c1` [ethyl ferrocene] + CCO, the binary diffusion coefficient (313.15 K, 200 kPa) was 1.29e-09 m2/s and 1.32e-09 m2/s and 1.31e-09 m2/s.

Work on `[CH]1C=CC=C1.[CH]1C=CC=C1.[Fe]` [ferrocene] + C1CCCCC1 yielded a binary diffusion coefficient (313.15 K, 170 kPa) of 1.52e-09 m2/s, a binary diffusion coefficient (313.15 K, 190 kPa) of 1.51e-09 m2/s and a binary diffusion coefficient (313.15 K, 200 kPa) of 1.5e-09 m2/s. The binary diffusion coefficient (313.15 K, 11030 kPa) was 1.31e-09 m2/s, the binary diffusion coefficient (313.15 K, 11080 kPa) was 1.31e-09 m2/s and the binary diffusion coefficient (313.15 K, 11090 kPa) was 1.32e-09 m2/s. It also gave a binary diffusion coefficient (313.15 K, 16010 kPa) of 1.25e-09 m2/s, a binary diffusion coefficient (313.15 K, 16020 kPa) of 1.25e-09 m2/s and a binary diffusion coefficient (313.15 K, 16030 kPa) of 1.25e-09 m2/s. The binary diffusion coefficient (313.15 K, 19010 kPa) was 1.21e-09 m2/s, the binary diffusion coefficient (313.15 K, 19020 kPa) was 1.21e-09 m2/s and 1.22e-09 m2/s and 1.24e-09 m2/s and the binary diffusion coefficient (323.15 K, 16020 kPa) was 1.48e-09 m2/s. It also gave a binary diffusion coefficient (323.15 K, 16030 kPa) of 1.48e-09 m2/s.

In the case of `[CH]1C=CC=C1.[CH]1C=CC=C1.[Fe]` [ferrocene] + CCCCCC, the binary diffusion coefficient (313.05 K, 16020 kPa) was 3.14e-09 m2/s, the binary diffusion coefficient (313.05 K, 16030 kPa) was 3.11e-09 m2/s and the binary diffusion coefficient (313.15 K, 160 kPa) was 3.66e-09 m2/s and 3.65e-09 m2/s. For the same compound, the binary diffusion coefficient (313.15 K, 170 kPa) was 3.64e-09 m2/s, the binary diffusion coefficient (313.15 K, 10990 kPa) was 3.28e-09 m2/s and 3.25e-09 m2/s and the binary diffusion coefficient (313.15 K, 11070 kPa) was 3.28e-09 m2/s. It also gave a binary diffusion coefficient (313.15 K, 11090 kPa) of 3.29e-09 m2/s, a binary diffusion coefficient (313.15 K, 15990 kPa) of 3.17e-09 m2/s and a binary diffusion coefficient (313.15 K, 16010 kPa) of 3.13e-09 m2/s. For the same compound, the binary diffusion coefficient (313.15 K, 16020 kPa) was 3.12e-09 m2/s, the binary diffusion coefficient (313.15 K, 16030 kPa) was 3.11e-09 m2/s and 3.14e-09 m2/s and the binary diffusion coefficient (313.15 K, 19020 kPa) was 3.07e-09 m2/s.

For `[CH]1C=CC=C1.[CH]1C=CC=C1.[Fe]` [ferrocene] + CCO, the binary diffusion coefficient (313.15 K, 200 kPa) was 1.48e-09 m2/s and 1.46e-09 m2/s and 1.45e-09 m2/s.
